Assay results as given in US20090137493A1, “Inhibition of tumor metastases using protein kinase C (PKC) inhibitors” (priority 2007, published 2009).
Bridges are numbered along the chain shown (N, C = ends). Where no end group is shown, it is not given here.

What was measured:
[1] = tested on: 4T1 murine mammary cancer cells; assay: Lung metastasis of luciferase-tagged 4T1 tumors in mice, imaging (relative light units); type: in vivo; conditions: 4T1-luciferase tumor-bearing mice, osmotic pump, about 35 mg/kg/day, four weeks
Method: To determine whether specific PKC inhibitors could reduce the amount of PKC translocation/activation in vivo and thereby reduce tumor cell metastasis, animals were administered an αPKC peptide inhibitor, or appropriate control, via an implanted osmotic pump, following the injection of luciferase-tagged tumor cells. […] The data are summarized in the bar graph shown in FIG. 4, along with similar data relating to the use of a βIIV5-3-TAT conjugate peptide (βPKC; SEQ ID NO: 27). The extent of lung metastasis is expressed as relative light units.
Balb/c female mice (6 weeks old) were injected semi-orthotopically with 4T1 murine mammary cancer cells tagged with luciferase ([…] cells/100 μL). One week later, an osmotic minipump was implanted subcutaneously in each animal, for delivery of saline (control), TAT peptide (control, YGRKKRRQRRR, SEQ ID NO: 25), the peptide inhibitor αV5-3 (QLVIAN, SEQ ID NO: 6) attached via an N-terminal disulfide bond to TAT peptide (YGRKKRRQRRR-CC-QLVIAN, SEQ ID NO: 26).
In other experiments, the peptide inhibitor βIIV5-3 (QEVIAN, SEQ ID NO: 13) or εV1-2 (EAVSLKPT, SEQ ID NO: 20) is attached via an N-terminal disulfide bond to the TAT peptide (SEQ ID NOs: 27 and 28, respectively). The TAT control, αV5-3-TAT, βIIV5-3-TAT, or εV1-2-TAT conjugate peptides are administered at about 35 mg/kg/day for two and four weeks.
After two weeks of treatment with αV5-3-TAT, some animals were selected form imaging (IVIS® 29, Xenogen Corporation, Alameda, Calif.) and analysis, with the remaining animals imaged after four weeks of treatment.
FIG. 4 is a bar graph showing the extent of lung metastasis, expressed as relative light units (based on imaging as exemplified in FIG. 3), in tumor-bearing mice treated for four weeks with saline, the αV5-3-TAT conjugate peptide (αPKC), or the βIIV5-3-TAT conjugate peptide (βPKC). The extent of lung metastasis, quantified approximately by the relative light units, for mice treated with saline, the αPKC inhibitor, and the βIIV5-3 PKC inhibitor peptide is shown. The extent of lung metastases is reduced in the animals treated with the αPKC inhibitor.

[2] = target: T1, βIIPKC (Mus musculus, UniProt P68404); assay: Translocation of βIIPKC in tumor cells (immunoblot of cytosol and particulate fractions); type: in vivo; conditions: FIG. 5B
T1 construct: endogenous in cells; host or cells: 4T1 murine mammary tumour cells grown as tumours in Balb/c mice
T1 sequence (P68404 1-673 isoform P68404-2): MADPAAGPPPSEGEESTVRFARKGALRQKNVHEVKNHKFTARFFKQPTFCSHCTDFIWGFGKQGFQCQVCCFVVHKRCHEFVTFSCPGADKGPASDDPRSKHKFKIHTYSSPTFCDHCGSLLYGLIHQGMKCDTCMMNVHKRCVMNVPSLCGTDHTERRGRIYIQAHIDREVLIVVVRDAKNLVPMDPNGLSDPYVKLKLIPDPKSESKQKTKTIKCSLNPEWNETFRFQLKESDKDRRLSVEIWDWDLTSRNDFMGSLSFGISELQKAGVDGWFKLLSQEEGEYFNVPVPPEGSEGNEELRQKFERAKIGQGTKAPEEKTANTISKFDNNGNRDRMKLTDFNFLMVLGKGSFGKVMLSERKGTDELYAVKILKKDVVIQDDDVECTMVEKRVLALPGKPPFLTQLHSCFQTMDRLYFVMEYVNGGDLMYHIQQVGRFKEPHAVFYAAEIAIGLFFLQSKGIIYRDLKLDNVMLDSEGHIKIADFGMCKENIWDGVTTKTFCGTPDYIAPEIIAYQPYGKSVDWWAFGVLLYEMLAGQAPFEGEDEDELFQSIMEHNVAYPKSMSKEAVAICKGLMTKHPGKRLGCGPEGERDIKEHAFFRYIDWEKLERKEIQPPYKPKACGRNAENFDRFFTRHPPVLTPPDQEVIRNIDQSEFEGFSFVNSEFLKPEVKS
Method: FIGS. 5A-5B are bar graphs showing the percentage of translocation of αPKC (FIG. 5A) and βIIPKC (FIG. 5B) […] in tumor cells treated with αV5-3-TAT peptide.
To further characterize inhibition of metastasis using the α and βIIPKC inhibitors, the percentage of translocation of αPKC (FIG. 5A) and βIIPKC (FIG. 5B), […] was measured.

[3] = tested on: 4T1 tumor cells; assay: Growth of primary tumors in vivo (number of tumor cells at primary site of injection); design: species or system mice; conditions: animals injected with 4T1 tumor cells, FIG. 6A, versus saline
Method: FIG. 6A is a bar graph showing the affect of saline, the αV5-3-TAT conjugate peptide (αPKC), or the βIIV5-3-TAT conjugate peptide (βPKC) on the growth rate of primary tumors in vivo.
To determine if the effects observed with the α and βIIPKC peptide inhibitors was due to a decrease in metastasis as opposed to a decrease in primary tumor growth, animals injected with 4T1 tumor cells were treated with saline, the αV5-3-TAT conjugate peptide (αPKC), or the βIIV5-3-TAT conjugate peptide (βPKC) and the number of tumors cells at the primary site of injection were determined.

[4] = tested on: MDA-MB-231 breast cancer cells; assay: Wound healing (migration) assay, MDA-MB-231; type: cell-based, human; conditions: peptide 1 uM, re-applied every 2 h for 8 h
Method: FIGS. 12A-12D are micrographs showing the efficacy of TAT carrier peptide (TAT; FIG. 12A), αV5-3-TAT peptide (Alpha; FIG. 12B), βIIV5-3 peptide (Beta2; FIG. 12C), and εV1-2 (Epsilon; FIG. 12D) on human MDA-MB-231 breast cancer cell migration.
(§1) To investigate the role of PKC inhibitors in reducing the migration of tumor cells, in vitro migration assays were performed using MDA-MB-231 breast cancer cells (FIGS. 12A-12D), MCF-7 breast cancer cell (FIGS. 13A-13D), JC cells (FIGS. 15A-15D), and 4T1 cells (FIGS. 16A-16D), in the presence of TAT carrier peptide (TAT), αV5-3-TAT peptide (Alpha), βIIV5-3 peptide (Beta2), or εV1-2 peptide (Epsilon).
(§2) Wound healing assay: Human or mouse breast cancer cell lines were grown in 6-well plates until about 90% confluent. Cells were then grown in serum free media overnight, before media was changed to media +1% FBS and peptide PKC inhibitors added (1 uM), at the same time a pipette tip was drawn across the cell layer to create a scrape ‘wound’. PKC inhibitors were re-applied every 2 h for a total of 8 h, before cells were left for a further 12 h and then the scrape was examined under phase contrast microscopy.

[5] = tested on: MCF-7 breast cancer cells; assay: Wound healing (migration) assay, MCF-7; type: cell-based, human; conditions: peptide 1 uM, re-applied every 2 h for 8 h
Method: FIGS. 13A-13D are micrographs showing the efficacy of TAT carrier peptide (TAT; FIG. 13A), αV5-3-TAT peptide (Alpha; FIG. 13B), βIIV5-3 peptide (Beta2; FIG. 13C), and εV1-2 (epsilon; FIG. 13D) on human MCF-7 breast cancer cell migration.
as §1, §2

[6] = tested on: JC cells; assay: Wound healing (migration) assay, JC; type: cell-based, mouse; conditions: peptide 1 uM, re-applied every 2 h for 8 h
Method: FIGS. 15A-15D are micrographs showing the efficacy of TAT carrier peptide (TAT; FIG. 15A), αV5-3-TAT peptide (Alpha; FIG. 15B), βIIV5-3 peptide (Beta2; FIG. 15C), and εV1-2 (Epsilon; FIG. 15D) on JC cell migration.
as §1, §2

[7] = tested on: MDA-MB-231 breast cancer cells; assay: Cell migration/invasion assay through a HUVEC monolayer, MDA-MB-231; type: cell-based, human; conditions: peptide 10 μM, re-applied every 2 hours for 10 hours
Text: (§3) FIGS. 14A and 14B are bar graphs showing the efficacy of TAT carrier peptide (TAT), αV5-3-TAT peptide (Alpha), βIIV5-3 peptide (Beta-2), and εV1-2 (Epsilon) in inhibiting the invasion of human MDA-MB-231 and MCF-7 breast cancer cells through a HUVEC monolayer. FIGS. 14C and 14D are bar graphs showing the efficacy of TAT carrier peptide (TAT) or αV5-3-TAT peptide in inhibiting the invasion of 4T1 (FIG. 11C) and MDA-MB-231 (FIG. 11D) cells.
as §3, with “14B show the results of a related experiment measuring” for “14B are bar graphs showing”, “εV1-2 peptide” for “εV1-2”, “14D show the results of a similar experiment” for “14D are bar graphs”
Cell Migration/invasion assay: Primary human endothelial cells (HUVEC's) were plated on top of a matrigel plug in trans-well plates. Once the cells had reached confluence (as determined by examination of a control well), 1×10^6 human breast cancer cells (MCF-7 or MDA-MB-231) expressing luciferase were added above the HUVEC cell layer. Where applicable, peptides were added to a final concentration of 10 μM and re-applied every 2 hours for 10 hours followed by further incubation. After 24-48 hours-incubation the HUVEC cell layer (and all other cells above the matrigel) were removed by scraping of the cell layer into the media and aspiration (repeated 3 times). The relative numbers of cancer cells that had crossed the HUVEC cell layer and entered the matrigel was then determined by bioluminescence detection of luciferase action following addition of luciferin substrate.

[8] = tested on: MCF-7 breast cancer cells; assay: Cell migration/invasion assay through a HUVEC monolayer, MCF-7; type: cell-based, human; conditions: peptide 10 μM, re-applied every 2 hours for 10 hours
Text: as §3
FIGS. 14A and 14B show the results of a related experiment measuring the efficacy of TAT carrier peptide (TAT), αV5-3-TAT peptide (Alpha), βIIV5-3 peptide (Beta-2), and εV1-2 peptide (Epsilon) in inhibiting the invasion of human MDA-MB-231 and MCF-7 breast cancer cells through a HUVEC monolayer. […]
Cell Migration/invasion assay: Primary human endothelial cells (HUVEC's) were plated on top of a matrigel plug in trans-well plates. Once the cells had reached confluence (as determined by examination of a control well), 1×10^6 human breast cancer cells (MCF-7 or MDA-MB-231) expressing luciferase were added above the HUVEC cell layer. […] The relative numbers of cancer cells that had crossed the HUVEC cell layer and entered the matrigel was then determined by bioluminescence detection of luciferase action following addition of luciferin substrate.

YGRKKRRQRRR-CC-CGRNAE (YGRKKRRQRRRCCCGRNAE; disulfide (positions not given here); also: TAT conjugated via disulfide, Cys pair not given here) [βIIV5-3-TAT]
effect on lung metastasis compared to control animals (in words) [1]: less pronounced effect
effect on lung metastasis compared to control animals (in words) ([1]; listed as βPKC inhibitor): about half
reduction of βIIPKC translocation [2]: did not significantly reduce
reduction in the number of cells at the primary tumor site [3]: no reduction
migration of MDA-MB-231 breast cancer cells ([4]; listed as βIIPKC inhibitor): reduced migration and invasion
migration of MDA-MB-231 breast cancer cells ([4]; listed as βIIV5-3 peptide): reduced
migration of MCF-7 breast cancer cells ([5]; listed as βIIPKC inhibitor): reduced migration and invasion
migration of MCF-7 breast cancer cells ([5]; listed as βIIV5-3 peptide): reduced
migration of JC cells [6]: reduced
invasion of MDA-MB-231 cells through a HUVEC monolayer [7]: reduced migration and invasion
invasion of MCF-7 cells through a HUVEC monolayer [8]: reduced migration and invasion

YGRKKRRQRRR-CC-EAVSLKPT (YGRKKRRQRRRCCEAVSLKPT; disulfide 12-13 (inferred)) [εV1-2-TAT]
invasion of MDA-MB-231 cells through a HUVEC monolayer [7]: reduce invasion
invasion of MCF-7 cells through a HUVEC monolayer [8]: reduce invasion
